From the CheMixHub viscosity set

Assay: xn = mol fraction of the nth substance listed
Settings: 101 kPa

CC(C)=O + O
Settings | viscosity [mPa·s]
293.15 K, x1 = 0.047 | 1.328
293.15 K, x1 = 0.095 | 1.549
293.15 K, x1 = 0.124 | 1.586
293.15 K, x1 = 0.152 | 1.588
293.15 K, x1 = 0.192 | 1.504
293.15 K, x1 = 0.328 | 1.129
293.15 K, x1 = 0.49 | 0.746
293.15 K, x1 = 0.687 | 0.497
293.15 K, x1 = 0.85 | 0.404
298.15 K, x1 = 0.0201 | 1.047
298.15 K, x1 = 0.2 | 1.343
298.15 K, x1 = 0.4 | 0.88
298.15 K, x1 = 0.6 | 0.543
298.15 K, x1 = 0.8 | 0.372
303.15 K, x1 = 0.047 | 1.027
303.15 K, x1 = 0.095 | 1.179
303.15 K, x1 = 0.124 | 1.214
303.15 K, x1 = 0.152 | 1.212
303.15 K, x1 = 0.192 | 1.148
303.15 K, x1 = 0.328 | 0.901
303.15 K, x1 = 0.49 | 0.625
303.15 K, x1 = 0.687 | 0.435
303.15 K, x1 = 0.85 | 0.367
308.15 K, x1 = 0.0499 | 0.9532
308.15 K, x1 = 0.0702 | 1.015
308.15 K, x1 = 0.1 | 1.064
308.15 K, x1 = 0.12 | 1.08
308.15 K, x1 = 0.1499 | 1.084
308.15 K, x1 = 0.1701 | 1.069
308.15 K, x1 = 0.1999 | 1.039
308.15 K, x1 = 0.22 | 1.012
308.15 K, x1 = 0.2499 | 0.9681
308.15 K, x1 = 0.2701 | 0.9345
308.15 K, x1 = 0.3001 | 0.8823
308.15 K, x1 = 0.3499 | 0.7933
308.15 K, x1 = 0.4 | 0.7101
308.15 K, x1 = 0.4502 | 0.6353
308.15 K, x1 = 0.5001 | 0.5698
308.15 K, x1 = 0.6 | 0.4627
308.15 K, x1 = 0.7 | 0.3849
308.15 K, x1 = 0.7999 | 0.3262
308.15 K, x1 = 0.9 | 0.2729
313.15 K, x1 = 0.0201 | 0.7526
313.15 K, x1 = 0.047 | 0.826
313.15 K, x1 = 0.0499 | 0.8529
313.15 K, x1 = 0.0702 | 0.9032
313.15 K, x1 = 0.095 | 0.929
313.15 K, x1 = 0.1 | 0.9489
313.15 K, x1 = 0.12 | 0.961
313.15 K, x1 = 0.124 | 0.945
313.15 K, x1 = 0.1499 | 0.9659
313.15 K, x1 = 0.152 | 0.955
313.15 K, x1 = 0.1701 | 0.9492
313.15 K, x1 = 0.192 | 0.908
313.15 K, x1 = 0.1999 | 0.9232
313.15 K, x1 = 0.22 | 0.9029
313.15 K, x1 = 0.2499 | 0.8658
313.15 K, x1 = 0.2701 | 0.8358
313.15 K, x1 = 0.3001 | 0.792
313.15 K, x1 = 0.328 | 0.737
313.15 K, x1 = 0.3499 | 0.7155
313.15 K, x1 = 0.4 | 0.6429
313.15 K, x1 = 0.4502 | 0.5785
313.15 K, x1 = 0.49 | 0.536
313.15 K, x1 = 0.5001 | 0.5234
313.15 K, x1 = 0.6 | 0.4276
313.15 K, x1 = 0.687 | 0.386
313.15 K, x1 = 0.7 | 0.361
313.15 K, x1 = 0.7999 | 0.302
313.15 K, x1 = 0.85 | 0.333
313.15 K, x1 = 0.9 | 0.2597
318.15 K, x1 = 0.0201 | 0.6793
318.15 K, x1 = 0.0499 | 0.7678
318.15 K, x1 = 0.0702 | 0.8166
318.15 K, x1 = 0.1 | 0.8463
318.15 K, x1 = 0.12 | 0.8495
318.15 K, x1 = 0.1499 | 0.8555
318.15 K, x1 = 0.1701 | 0.8465
318.15 K, x1 = 0.1999 | 0.8249
318.15 K, x1 = 0.22 | 0.8044
318.15 K, x1 = 0.2499 | 0.7773
318.15 K, x1 = 0.2701 | 0.7529
318.15 K, x1 = 0.3001 | 0.7134
318.15 K, x1 = 0.3499 | 0.6478
318.15 K, x1 = 0.4 | 0.5851
318.15 K, x1 = 0.4502 | 0.5251
318.15 K, x1 = 0.5001 | 0.476
318.15 K, x1 = 0.6 | 0.3869
318.15 K, x1 = 0.7 | 0.3317
318.15 K, x1 = 0.7999 | 0.2774
318.15 K, x1 = 0.9 | 0.2431
323.15 K, x1 = 0.047 | 0.746
323.15 K, x1 = 0.095 | 0.834
323.15 K, x1 = 0.124 | 0.853
323.15 K, x1 = 0.152 | 0.859
323.15 K, x1 = 0.192 | 0.808
323.15 K, x1 = 0.328 | 0.682
323.15 K, x1 = 0.49 | 0.499
323.15 K, x1 = 0.687 | 0.367
323.15 K, x1 = 0.85 | 0.32
